{"source": "paper PMC8199124", "about": "“Design, Synthesis and In-Vitro Biological Evaluation of Antofine and Tylophorine Prodrugs as Hypoxia-Targeted Anticancer Agents” (Molecules, 2021)", "key": {"[1]": {"experiment": "Solubility in PBS (pH 7.4)", "type": "physicochemical", "details": "aqueous buffer, mean ± SE", "protocol": "(§1) Water solubility, logD, and PAMPA-BBB were evaluated using the protocols we previously described."}, "LogD determination": {"experiment": "LogD determination", "type": "physicochemical", "details": "mean ± SE", "protocol": "as §1"}, "[2]": {"experiment": "BBB-Parallel Artificial Membrane Permeability Assay (BBB-PAMPA)", "type": "in vitro ADME", "details": "mean ± SE", "protocol": "The physicochemical properties of the new compounds were evaluated (Table 1). […] Consequently, these derivatives lost their BBB penetrability, as predicted by the BBB-Parallel Artificial Membrane Permeability Assay (BBB-PAMPA), whereas their parent alkaloids had free passage through the BBB.\nas §1"}, "[3]": {"experiment": "Plasma protein binding (PPB)", "type": "in vitro ADME", "details": "mean ± SE, read-out: PPB (% of Bound Compound) (converted)", "protocol": "The physicochemical properties of the new compounds were evaluated (Table 1)."}, "[4]": {"experiment": "Mouse plasma stability test", "type": "in vitro ADME", "details": "37 °C, up to 24 h, read-out: t1/2 (Mouse Plasma) (converted)", "protocol": "(§2) Incubations were carried out in 6 aliquots of 70 μL each in duplicates. […] The reactions were stopped by adding 350 μL of acetonitrile with subsequent plasma proteins sedimentation by centrifuging at 5500 rpm for 5 min. Supernatants were analyzed by LC-MS using Shimadzu VP HPLC system including vacuum degasser, gradient pumps, reverse phase column, column oven and autosampler. The HPLC system was coupled with tandem mass spectrometer API 3000 (PE Sciex, Foster City, CA, USA). Both the positive and negative ion modes of the TurboIonSpray ion source were used. The acquisition and analysis of the data were performed using Analyst 1.5.2 software (PE Sciex, API 3000 mass spectrometer, Foster City, CA, USA). The percentage of the test compounds remaining after incubation in plasma and their half-lives (T1/2) were calculated."}, "[5]": {"experiment": "Human plasma stability test", "type": "in vitro ADME", "details": "37 °C, up to 24 h, read-out: t1/2 (Human Plasma) (converted)", "protocol": "as §2"}, "in vitro": {"experiment": "in vitro", "details": "male, Balb/c, mouse, pH 7.4", "protocol": "Mouse hepatic microsomes were isolated from pooled, perfused livers of Balb/c male mice according to the standard protocol. […] Microsomal incubations were carried out in 96-well plates in 5 aliquots of 40 μL each. […] Control incubations were performed by replacing the NADPH-cofactor system with PBS. The additional control incubations in PBS (with 3.3 mM MgCl2) without added microsomes were carried out in this study. […] The incubations were performed in duplicates. Five time points over 40 min had been analyzed. The reactions were stopped by adding 12 volumes of 90% acetonitrile-water to incubation aliquots, followed by protein sedimentation by centrifuging at 5500 rpm for 3 min. The supernatants were analyzed using LC-MS as mentioned above."}, "HEK293": {"test_system": "HEK293", "experiment": "Cytotoxicity (MTT) under normoxia, HEK293", "type": "cell-based", "details": "Homo sapiens, HEK293, read-out: IC50 HEK293", "protocol": "(§3) The cytotoxicity of the compounds 5a–c and their parent alkaloids was evaluated by the 3-[4,5-dimethylthiazole-2-yl]-2,5-diphenyltetrazolium bromide (MTT) assay against 5 cancerous and 2 non-cancerous cell lines (Table 4).\n(§4) The eight cell lines HEK293 (Human embryonic kidney 293), CHO-K1 (Chinese hamster ovary K1), MCF-7 cells (Human breast adenocarcinoma), HCT116 (human colorectal carcinoma), RKO (Human rectal carcinoma), SW480 (human colorectal carcinoma), H460 (Human lung cancer), and MRC5 (Normal human foetal lung fibroblast), were obtained from the ATCC. The cell lines were routinely grown in alpha minimum essential medium (α-MEM) containing 5% foetal calf serum (FCS). The appropriate number of cells (HCT116 = 400 cells/well, H460 cells = 600 cells/well) were seeded into 96-well plates under normoxic or hypoxic conditions. Cells were plated in 100 µL α-MEM containing 10% FCS, 10mM D-Glucose and 0.2mM 2′-deoxycytidine. After incubation for 2 h, the compounds were added at the appropriate concentration and incubated for further 4 h. The cells were then washed three times with drug-free α-MEM (containing 5% FCS and pen/strep). The plates were then incubated for 5 days under normoxic conditions. The cells were stained with sulphorhodamine B to measure total cells. The IC50 was determined by interpolation as the compound concentration reducing staining to 50% of controls on the same plate."}, "CHO-K1": {"test_system": "CHO-K1", "experiment": "Cytotoxicity (MTT) under normoxia, CHO-K1", "type": "cell-based, Chinese hamster", "details": "Cricetulus griseus, CHO-K1, read-out: IC50 CHO-K1", "protocol": "as §3, §4"}, "MCF7": {"test_system": "MCF7", "experiment": "Cytotoxicity (MTT) under normoxia, MCF7", "type": "cell-based", "details": "Homo sapiens, MCF7, read-out: IC50 MCF7", "protocol": "as §3, §4"}, "HCT116 [6]": {"test_system": "HCT116", "experiment": "Cytotoxicity (MTT) under normoxia, HCT116", "type": "cell-based", "details": "Homo sapiens, HCT-116, read-out: IC50 HCT116", "protocol": "as §3, §4"}, "RKO": {"test_system": "RKO", "experiment": "Cytotoxicity (MTT) under normoxia, RKO", "type": "cell-based", "details": "Homo sapiens, read-out: IC50 RKO", "protocol": "as §3, §4"}, "SW480": {"test_system": "SW480", "experiment": "Cytotoxicity (MTT) under normoxia, SW480", "type": "cell-based", "details": "Homo sapiens, SW480, read-out: IC50 SW480", "protocol": "as §3, §4"}, "MRC5": {"test_system": "MRC5", "experiment": "Cytotoxicity (MTT) under normoxia, MRC5", "type": "cell-based", "details": "Homo sapiens, MRC5, read-out: IC50 MRC5", "protocol": "as §3, §4"}, "HCT116 [7]": {"test_system": "HCT116", "experiment": "Cytotoxicity under normoxia and hypoxia (anaerobic chamber, sulphorhodamine B), HCT116", "type": "cell-based, human", "details": "for IC50: Homo sapiens, HCT-116, 4 h exposure, 5 days growth", "protocol": "(§5) We also checked if the designed prodrugs were able to liberate the active alkaloids in hypoxic tumors by testing them under hypoxic conditions using an anaerobic chamber. The three prodrugs 5a–c and their parent alkaloids as well as the reference compounds PR-104A, the parent alcohol form of the phosphate pre-prodrug PR-104, and evofosfamide were tested using the HCT116 and H460 cell lines under both normoxic and hypoxic conditions (Table 5). The prodrugs were much less cytotoxic than the parent drugs, in agreement with our observations using the other cell lines described above (Figure 6).\n(§6) The extent to which a prodrug is deactivated relative to its parent drug under normoxic conditions is defined as the Deactivation Ratio (DR). The DR can be simply calculated as DR = IC50 (prodrug)/IC50 (parent drug).\n(§7) The efficacy of prodrug activation under hypoxic conditions can be expressed by the Hypoxia Cytotoxicity Ratio (HCR), which can be calculated for a given prodrug as: HCR = normoxic IC50/hypoxic IC50.\nas §4"}, "H460": {"test_system": "H460", "experiment": "Cytotoxicity under normoxia and hypoxia (anaerobic chamber, sulphorhodamine B), H460", "type": "cell-based, human", "details": "for IC50: Homo sapiens, NCI-H460, 4 h exposure, 5 days growth", "protocol": "as §5, §6, §7, §4"}}, "note": "Where two headings read alike, the source gives them in different places.", "data": [{"smiles": "COc1cc2c3c(c4cc(OC)c(OC)cc4c2cc1OC)C[N+]1(Cc2c([N+](=O)[O-])ncn2C)CCC[C@H]1C3.[Br-]", "note": "(stereo partly drawn) [Compound 5b, (13aS)-2,3,6,7-tetramethoxy-10-((1-methyl-4-nitro-1H-imidazol-5-yl)methyl)-10,11,12,13,13a,14-hexahydro-9H-dibenzo[f,h]pyrrolo[1,2-b]isoquinolin-10-ium bromide]", "values": [{"measurement": "solubility", "setting": "[1]", "result": "162 ± 3", "unit": "µM"}, {"measurement": "logD", "setting": "LogD determination", "result": "0.38 ± 0.04"}, {"measurement": "Permeability (Papp)", "setting": "[2]", "result": "<−7 Log [10^−6 cm/s]"}, {"measurement": "fraction unbound", "setting": "[3]", "result": 0.411}, {"measurement": "half-life at 1 μM", "setting": "[4]", "result": "73 ± 1.7", "unit": "h"}, {"measurement": "half-life at 1 μM", "setting": "[5]", "result": "63.3 ± 0.1", "unit": "h"}, {"measurement": "Kel (elimination rate constant)", "setting": "in vitro; 2 μM", "result": "0.002 ± 0", "unit": "min⁻¹"}, {"measurement": "metabolized into the parent drug", "setting": "in vitro; microsomes, 2 μM", "result": "less than 1%"}, {"measurement": "half-life at 2 μM", "setting": "in vitro; microsomes", "result": "6.733 ± 0.0533", "unit": "h"}, {"measurement": "IC50", "setting": "HEK293", "result": "0.95 ± 0.174", "unit": "µM"}, {"measurement": "IC50", "setting": "CHO-K1", "result": "3.49 ± 0.843", "unit": "µM"}, {"measurement": "IC50", "setting": "MCF7", "result": "1.5 ± 0.128", "unit": "µM"}, {"measurement": "IC50", "setting": "HCT116 [6]", "result": "3.3 ± 1.56", "unit": "µM"}, {"measurement": "IC50", "setting": "RKO", "result": "4.06 ± 0.181", "unit": "µM"}, {"measurement": "IC50", "setting": "SW480", "result": "7.25 ± 0.49", "unit": "µM"}, {"measurement": "IC50", "setting": "MRC5", "result": "3.31 ± 0.163", "unit": "µM"}, {"measurement": "HCR (Hypoxia Cytotoxicity Ratio)", "setting": "HCT116 [7]", "result": 11.3}, {"measurement": "DR (Deactivation Ratio)", "setting": "HCT116 [7]; HCT116, normoxia, DR = IC50 (prodrug)/IC50 (parent drug)", "result": 689}, {"measurement": "IC50", "setting": "HCT116 [7]; HCT116, hypoxia, read-out: IC50 (Hypoxia)", "result": "1.46 ± 0.411", "unit": "µM"}, {"measurement": "IC50", "setting": "HCT116 [7]; HCT116, normoxia, read-out: IC50 (Normoxia)", "result": "4.49 ± 0.698", "unit": "µM"}, {"measurement": "HCR (Hypoxia Cytotoxicity Ratio)", "setting": "H460", "result": 24}, {"measurement": "DR (Deactivation Ratio)", "setting": "H460; H460, normoxia, DR = IC50 (prodrug)/IC50 (parent drug)", "result": 719}, {"measurement": "IC50", "setting": "H460; H460, hypoxia, read-out: IC50 (Hypoxia)", "result": "3.22 ± 1.07", "unit": "µM"}, {"measurement": "IC50", "setting": "H460; H460, normoxia, read-out: IC50 (Normoxia)", "result": 77.6, "unit": "µM"}, {"measurement": "melting point", "result": "165 to 167", "unit": "°C"}]}]}
